Data: ChEMBL document CHEMBL2321698, “Novel Amino-Nicotinamide Derivatives as Modulators of KCNQ2/3 Potassium Channels” (2013)

Columns and labels:
[1] = system: Rattus norvegicus; assay: Antinociceptive activity in po dosed Sprague-Dawley rat by low intensity tail flick test; assay type: functional
[2] = target: T1, Voltage-gated potassium channel, KQT; KCNQ2(Kv7.2)/KCNQ3(Kv7.3) (Homo sapiens) (UniProt O43526+O43525); assay: Modulation of human KCNQ2/3 channel expressed in CHO-K1 cells by fluorescence assay; assay type: cell-based
[3] = target: T1, Voltage-gated potassium channel, KQT; KCNQ2(Kv7.2)/KCNQ3(Kv7.3) (Homo sapiens); assay: Modulation of human KCNQ2/3 channel expressed in CHO-K1 cells by fluorescence assay relative to retigabine; assay type: cell-based; set-up: concentration or dose not given beside the values

| Structure (SMILES) | ED50 [1] [mg/kg] | Activity [2] [nM] | Activity [3] [%] |
| --- | --- | --- | --- |
| Cc1cc(N2CCOCC2)nc(C2CC2)c1C(=O)NC[C@@H]1CCCC[C@H]1O | 67 | 483 | 245 |
| COc1nc(N2CCOCC2)cc(C)c1C(=O)NCc1cccc(F)c1 | 79 | 736 | 155 |
| CCSc1nc(N2CCOCC2)cc(C)c1C(=O)NCCCC(C)(C)C | 100 | 42 | 244 |
| CCSc1nc(N2CCOCC2)cc(C)c1C(=O)NCc1cccc(F)c1 | 4.3 | 134 | 171 |
| CCCc1nc(N2CCOCC2)cc(C)c1C(=O)NCc1cccc(F)c1 | 81 | 181 | 176 |
| CCSc1nc(N2CCOCC2)cc(C)c1C(=O)NCc1ccc(F)cc1 | 94 | 124 | 158 |
| CCSc1nc(N2CCOCC2)cc(C)c1C(=O)NCc1cc(C)cc(F)c1 | 78 | 56 | 160 |
| CCSc1nc(N2CCOCC2)cc(C)c1C(=O)NCCCC(C)C | 46 | 206 | 215 |
